This note sets out measurements from patent US11278530B2, “Polycyclic amides as muscarinic M1 receptor positive allosteric modulators” (SUVEN LIFE SCIENCES LIMITED, priority 2017, dated 2022).

The experiment deals with T1, recombinant human Muscarinic M1 receptor (Homo sapiens, UniProt P11229).
T1 sequence (P11229 1-460): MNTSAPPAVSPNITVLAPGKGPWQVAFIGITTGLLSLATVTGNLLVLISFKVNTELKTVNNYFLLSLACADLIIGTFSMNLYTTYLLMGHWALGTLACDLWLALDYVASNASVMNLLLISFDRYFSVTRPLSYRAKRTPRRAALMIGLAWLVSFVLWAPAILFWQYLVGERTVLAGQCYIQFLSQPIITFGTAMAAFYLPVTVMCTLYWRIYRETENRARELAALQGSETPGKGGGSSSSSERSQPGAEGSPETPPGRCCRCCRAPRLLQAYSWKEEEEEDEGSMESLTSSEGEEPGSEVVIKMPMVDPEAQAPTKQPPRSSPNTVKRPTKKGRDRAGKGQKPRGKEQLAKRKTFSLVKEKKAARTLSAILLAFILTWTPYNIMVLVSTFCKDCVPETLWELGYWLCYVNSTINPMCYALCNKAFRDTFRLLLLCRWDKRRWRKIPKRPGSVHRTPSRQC
Description: Allosteric potency EC50 for Muscarinic M1 receptor, CHO pCRE-Luc reporter cell-based assay with EC20 of acetylcholine. As to conditions: CHO cells, human M1, luciferase reporter, in presence of EC20 of acetylcholine, 4 h. On the procedure:
Determination of allosteric potency EC50 values for Muscarinic M1 receptor:
A stable CHO cell line expressing recombinant human Muscarinic M1 receptor and pCRE-Luc reporter system was used for cell-based assay. The assay offers a non-radioactive based approach to determine binding of a compound to GPCRs. In this specific assay, the level of intracellular cyclic AMP which is modulated by activation or inhibition of the receptor is measured. The recombinant cells harbor luciferase reporter gene under the control of cAMP response element.
The above cells were grown in 96 well clear bottom white plates in Hams F12 medium containing 10% fetal bovine serum (FBS). Prior to the addition of compounds or standard agonist, cells were serum starved overnight. Increasing concentrations of test compounds were added along with EC20 of acetylcholine in OptiMEM medium to the cells. The incubation was continued at 37° C. in CO2 incubator for 4 h. Medium was removed and cells were washed with phosphate buffered saline. The cells were lysed and luciferase activity was measured in a Luminometer. Luminescence counts in each concentrations of test item were normalized to the acetylcholine induced maximum response and the data was analyzed using Graphpad software. EC50 values of the compounds were defined as the concentration required in stimulating the luciferase activity by 50% in presence of EC20 of acetylcholine.
Background: Reporter assays use an easily measured gene product as a stand-in for the process of interest.
Broadly, the EC50 is the concentration giving half of the maximal effect. In the case of `Cc1c(Cc2ccc(Cl)nc2)cc(C(=O)NC2CCOC[C@@H]2O)c2ncccc12` (stereo partly drawn) [Example 3, N-(cis-3S,4S-3-Hydroxytetrahydropyran-4-yl)-6-(2-chloropyridin-5-ylmethyl)-5-methylquinoline-8-carboxamide], the EC50 was found to be 1240 nM.

Take `Cc1cc2c(C)c(Cc3ccc(-c4cnn(C)c4)cc3)cc(C(=O)N[C@H]3CCCC[C@@H]3O)c2o1` [Example 46, N-(cis-1S,2S-2-Hydroxycyclohexyl)-2,4-dimethyl-5-[4-(1-methyl-1H-pyrazol-4-yl)-benzyl]-benzofuran-7-carboxamide]: the EC50 worked out at 299 nM.

For the compound `Cc1nc2c(C(=O)N[C@H]3CCCC[C@@H]3O)cc(Cc3ccc(-c4cscn4)cc3)c(C)c2[nH]1` [Example 40, N-(cis-1S,2S-2-Hydroxycyclohexyl)-2,7-dimethyl-6-(4-thiazol-4-yl-benzyl)-1H-benzimidazole-4-carboxamide], the EC50 was 1500 nM.

In the case of `O=C(N[C@H]1CCCC[C@@H]1O)c1cc(Cc2ccc(-c3cscn3)cc2)cn2ccnc12` [Example 23, N-(cis-1S,2S-2-Hydroxycyclohexyl)-6-(4-thiazol-4-yl-benzyl)-imidazo[1,2-a]pyridine-8-carboxamide], the EC50 was 308 nM.

Consider `Cc1c(Cc2ccc(-c3cnn(C)c3)c(F)c2F)cc(C(=O)N[C@@H]2CCCC[C@H]2O)c2c1ncn2C` [Example 43, N-(cis-1S,2S-2-Hydroxycyclohexyl)-3,7-dimethyl-6-[2,3-difluoro-4-(1-methyl-1H-pyrazol-4-yl)-benzyl]-3H-benzimidazole-4-carboxamide], for which the EC50 turned out to be 1460 nM.

Take `Cc1c(Cc2ccc(-c3cnn(C)c3)nc2)cc(C(=O)N[C@@H]2CCCC[C@H]2O)c2nc[nH]c12` [Example 35, N-(cis-1S,2S-2-Hydroxycyclohexyl)-7-methyl-6-[6-(1-methyl-1H-pyrazol-4-yl)-pyridin-3-ylmethyl]-1H-benzimidazole-4-carboxamide]: the EC50 was found to be 237 nM.

On to `Cc1c(Cc2ccc(-n3cccn3)cc2)cc(C(=O)N[C@H]2CCCC[C@@H]2O)c2nc[nH]c12` [Example 27, N-(cis-1S,2S-2-Hydroxycyclohexyl)-7-methyl-6-(4-pyrazol-1-yl-benzyl)-1H-benzimidazole-4-carboxamide], for which the EC50 was determined as 357 nM.

In the case of `Cc1nc2c(C(=O)N[C@H]3CCCC[C@@H]3O)cc(Cc3ccc(-n4cccn4)cc3)c(C)c2[nH]1` [Example 38, N-(cis-1S,2S-2-Hydroxycyclohexyl)-2,7-dimethyl-6-(4-pyrazol-1-yl-benzyl)-1H-benzimidazole-4-carboxamide], the EC50 came to 694 nM.

Regarding `Cc1c(Cc2ccc(-c3cscn3)cc2)cc(C(=O)N[C@H]2CCCC[C@@H]2O)c2ncccc12` [Example 12, N-(cis-1S,2S-2-Hydroxycyclohexyl)-6-(4-thiazol-4-yl-benzyl)-5-methylquinoline-8-carboxamide], the EC50 was 258 nM.

For `Cc1c(Cc2ccc(-c3cnn(C)c3)nc2)cc(C(=O)N[C@H]2CCCC[C@@H]2O)c2ncccc12` [Example 7, N-(cis-1S,2S-2-Hydroxycyclohexyl)-6-[2-(1-methyl-1H-pyrazol-4-yl)-pyridin-5-ylmethyl]-5-methylquinoline-8-carboxamide], the EC50 came out at 232 nM.

For `Cc1c(Cc2ccc(-c3cnn(C)c3)cc2)cc(C(=O)N[C@H]2CCCC[C@@H]2O)c2c1NCCO2` [Example 16, N-(cis-1S,2S-2-Hydroxycyclohexyl)-6-[4-(1-methyl-1H-pyrazol-4-yl)-benzyl]-5-methyl-3,4-dihydro-2H-benzo[1,4]oxazine-8-carboxamide], the EC50 worked out at 798 nM.

As for `Cc1c(Cc2ccc(-c3cnn(C)c3)cc2)cc(C(=O)N[C@H]2CCCC[C@@H]2O)c2nccn12` [Example 18, N-(cis-1S,2S-2-Hydroxycyclohexyl)-5-methyl-6-[4-(1-methyl-1H-pyrazol-4-yl)-benzyl]-imidazo[1,2-a]pyridine-8-carboxamide], the concentration giving a half-maximal response (EC50) is 248 nM.

For `Cc1c(Cc2ccc(-c3cscn3)cc2)cc(C(=O)N[C@@H]2CCCC[C@H]2O)c2c1ncn2C` [Example 45, N-(cis-1S,2S-2-Hydroxycyclohexyl)-3,7-dimethyl-6-[4-(thiazol-4-yl)-benzyl]-3H-benzimidazole-4-carboxamide], the EC50 is 10000 nM.

Regarding `O=C(N[C@H]1CCCC[C@@H]1O)c1cc(Cc2cccc(F)c2F)cn2ccnc12` [Example 22, N-(cis-1S,2S-2-Hydroxycyclohexyl)-6-(2.3-difluorobenzyl)-imidazo[1,2-a]pyridine-8-carboxamide], the concentration for a half-maximal effect (EC50) was found to be 3820 nM.

As to `Cc1c(Cc2ccc(-c3cscn3)cc2)cc(C(=O)N[C@@H]2CCCC[C@H]2O)c2nc[nH]c12` [Example 32, N-(cis-1S,2S-2-Hydroxycyclohexyl)-7-methyl-6-[4-(thiazol-4-yl)-benzyl]-1H-benzimidazole-4-carboxamide], the EC50 came out at 516 nM.

With `Cc1c(Cc2ccc(-c3cnn(C)c3)nc2)cc(C(=O)N[C@@H]2CCCC[C@H]2O)c2c1ncn2C` [Example 44, N-(cis-1S,2S-2-Hydroxycyclohexyl)-3,7-dimethyl-6-[6-(1-methyl-1H-pyrazol-4-yl)-pyridin-3-ylmethyl]-3H-benzimidazole-4-carboxamide], the EC50 was found to be 208 nM.

Turning to `Cn1cc(-c2ccc(Cc3cc(C(=O)N[C@H]4CCCC[C@@H]4O)c4nccn4c3)cc2)cn1` [Example 25, N-(cis-1S,2S-2-Hydroxycyclohexyl)-6-[4-(1-methyl-1H-pyrazol-4-yl)-benzyl]-imidazo[1,2-a]pyridine-8-carboxamide], the EC50 came to 444 nM.

`Cc1c(Cc2cccc(F)c2F)cc(C(=O)N[C@@H]2CCCC[C@H]2O)c2nc[nH]c12` [Example 33, N-(cis-1S,2S-2-Hydroxycyclohexyl)-7-methyl-6-[2,3-difluorobenzyl]-1H-benzimidazole-4-carboxamide]: the EC50 is 3660 nM.

`Cc1c(Cc2ccnc(F)c2)cc(C(=O)N[C@H]2CCCC[C@@H]2O)c2ncccc12` [Example 4, N-(cis-1S,2S-2-Hydroxycyclohexyl)-6-(2-fluoropyridin-4-ylmethyl)-5-methylquinoline-8-carboxamide]: the EC50 is 960 nM.

In the case of `Cc1c(Cc2ccc(-n3cccn3)cc2)cc(C(=O)N[C@H]2CCCC[C@@H]2O)c2ncccc12` [Example 10, N-(cis-1S,2S-2-Hydroxycyclohexyl)-6-(4-pyrazol-1-yl-benzyl)-5-methylquinoline-8-carboxamide], the EC50 came to 157 nM.

Turning to `Cc1c(Cc2ccc(-c3cnn(C)c3)cc2F)cc(C(=O)N[C@@H]2CCCC[C@H]2O)c2c1ncn2C` [Example 41, N-(cis-1S,2S-2-Hydroxycyclohexyl)-3,7-dimethyl-6-[2-fluoro-4-(1-methyl-1H-pyrazol-4-yl)-benzyl]-3H-benzimidazole-4-carboxamide], the EC50 was found to be 1060 nM.

As to `Cc1c(Cc2ccc(-c3cnn(C)c3)cc2F)cc(C(=O)N[C@H]2CCCC[C@@H]2O)c2nccn12` [Example 20, N-(cis-1S,2S-2-Hydroxycyclohexyl)-5-methyl-6-[2-fluoro-4-(1-methyl-1H-pyrazol-4-yl)-benzyl]-imidazo[1,2-a]pyridine-8-carboxamide], the EC50 was found to be 28 nM.

`Cc1c(Cc2ccc(-c3cnn(C)c3)c(F)c2)cc(C(=O)N[C@H]2CCCC[C@@H]2O)c2ncccc12` [Example 9, N-(cis-1S,2S-2-Hydroxycyclohexyl)-6-[3-fluoro-4-(1-methyl-1H-pyrazol-4-yl)-benzyl]-5-methylquinoline-8-carboxamide]: the EC50 is 185 nM.

For the compound `O=C(N[C@H]1CCCC[C@@H]1O)c1cc(Cc2ccc(-c3ccccc3)cc2)cn2ccnc12` [Example 24, N-(cis-1S,2S-2-Hydroxycyclohexyl)-6-(4-phenyl-benzyl)-imidazo[1,2-a]pyridine-8-carboxamide], the EC50 was 3910 nM.

Consider `Cc1c(Cc2ccc(-n3cccn3)cc2)cc(C(=O)N[C@H]2CCCC[C@@H]2O)c2nccn12` [Example 19, N-(cis-1S,2S-2-Hydroxycyclohexyl)-5-methyl-6-(4-pyrazol-1-yl-benzyl)-imidazo[1,2-a]pyridine-8-carboxamide], for which the 50% effective concentration (EC50) was 178 nM.

In the case of `Cc1c(Cc2cccnc2Cl)cc(C(=O)N[C@@H]2CCCC[C@H]2O)c2nc[nH]c12` [Example 31, N-(cis-1S,2S-2-Hydroxycyclohexyl)-7-methyl-6-[2-chloropyridin-3-ylmethyl]-1H-benzimidazole-4-carboxamide], the EC50 was 2820 nM.

With `Cc1c(Cc2ccc(-c3cnn(C)c3)cc2)cc(C(=O)N[C@H]2CCCC[C@@H]2O)c2nc[nH]c12` [Example 28, N-(cis-1S,2S-2-Hydroxycyclohexyl)-7-methyl-6-[4-(1-methyl-1H-pyrazol-4-yl)-benzyl]-1H-benzimidazole-4-carboxamide], the EC50 was found to be 105 nM.
